This note sets out measurements from patent US9115137B2, “2,3,4,5-tetrahydro-1H-pyrido[4,3-B]indole compounds and methods of use thereof” (priority 2008, dated 2015).

The structures appear in SMILES notation. Read-outs that look alike come from different tables or passages of the source.

Assay [1] concerns the target T1, human recombinant serotonin (5-Hydroxytryptamine) 5-HT2A receptor (Homo sapiens, UniProt P28223).
T1 construct: expressed in transfected cells; host or cells: CHO-K1 cells
The experiment in a line: Serotonin 5-HT2A radioligand binding ([3H]Ketanserin). The conditions noted are these: read-out: Serotonin (1 μM) 5-HT2A, percent inhibition of specific binding. On the procedure: To evaluate in radioligand binding assays the activity of compounds of the invention, human recombinant serotonin (5-Hydroxytryptamine) 5-HT2A receptor expressed in Chinese hamster ovary (CHO-K1) cells (Bonhaus, D. W. et al. Br. J. Pharmacol. 115:622, 1995; Saucier, C. and Albert, P. R., J. Neurochem. 68:1998, 1997) in a 50 mM Tris-HCl buffer, pH 7.4, was used. Compounds of the invention were incubated with 0.5 nM [^3H]Ketanserin for 60 minutes at 25° C. Non-specific binding was estimated in the presence of 1 μM Mianserin. Receptor proteins were filtered and washed, the filters were then counted to determine [^3H] Ketanserin specifically bound. Compounds were screened at 1 μM or lower, using 1% DMSO as vehicle. Biochemical assay results are presented as the percent inhibition of specific binding in Table 7.

Assay [2] deals with T2, human recombinant adrenergic α2A receptor (Homo sapiens, UniProt P08913).
T2 construct: expressed in transfected cells; host or cells: insect Sf9 cells
T2 sequence (P08913 1-465): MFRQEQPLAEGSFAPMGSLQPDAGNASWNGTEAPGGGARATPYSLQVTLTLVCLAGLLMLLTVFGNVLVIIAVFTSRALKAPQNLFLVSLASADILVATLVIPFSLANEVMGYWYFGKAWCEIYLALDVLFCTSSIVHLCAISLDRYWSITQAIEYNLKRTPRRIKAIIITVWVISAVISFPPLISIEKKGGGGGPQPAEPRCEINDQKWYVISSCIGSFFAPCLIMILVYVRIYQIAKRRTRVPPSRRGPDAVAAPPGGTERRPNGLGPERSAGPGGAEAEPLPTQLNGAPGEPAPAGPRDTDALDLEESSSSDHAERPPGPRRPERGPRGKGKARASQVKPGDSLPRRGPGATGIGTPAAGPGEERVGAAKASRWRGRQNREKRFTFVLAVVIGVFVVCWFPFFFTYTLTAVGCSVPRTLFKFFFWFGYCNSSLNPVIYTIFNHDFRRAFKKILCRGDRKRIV
The experiment in a line: Adrenergic α2A radioligand binding ([3H]MK-912). As to conditions: read-out: Adrenergic (1 μM) α2A, percent inhibition of specific binding. On the procedure: To evaluate in radioligand binding assays the activity of compounds of the invention, human recombinant adrenergic α2A receptor expressed in insect Sf9 cells (Uhlen S et al. J Pharmacol Exp Ther. 271:1558, 1994) in a modified Tris-HCl buffer (50 mM Tris-HCl, pH 7.4, 12.5 mM MgCl2, 2 mM EDTA) was used. Compounds of invention were incubated with 1 nM [^3H]MK-912 for 60 minutes at 25° C. MK912 is (2S-trans)-1,3,4,5′,6,6′,7,12b-octahydro-1′,3′-dimethyl-spiro[2H-benzofuro[2,3-a]quinolizine-2,4′(1′H)-pyrimidin]-2′(3′H)-one hydrochloride Non-specific binding was estimated in the presence of 10 μM WB-4101 (2-(2,6-Dimethoxyphenoxyethyl)aminomethyl-1,4-benzodioxane hydrochloride). Receptor proteins were filtered and washed, the filters were then counted to determine [^3H]MK-912 specifically bound. Compounds were screened at 1 μM or lower, using 1% DMSO as vehicle. Biochemical assay results are presented as the percent inhibition of specific binding in Table 6.

Assay [3] deals with rat central imidazoline I2 receptor. The assay is described as follows: Central imidazoline I2 radioligand binding ([3H]Idazoxan). As to conditions: compound at 1 μM; Wistar Rat cerebral cortex. The protocol:
To evaluate in radioligand binding assays the activity of compounds of the invention, rat central imidazoline I2 receptor obtained from Wistar Rat cerebral cortex (Brown, C. M. et al., Br. J. Pharmacol. 99:803, 1990) in a modified Tris-HCl buffer (50 mM Tris-HCl buffer, pH 7.4, 0.5 mM EDTA) was used. Compounds of the invention were incubated with 2 nM [^3H]Idazoxan for 30 minutes at 25° C. Non-specific binding was estimated in the presence of 1 μM Idazoxan. Receptor proteins were filtered and washed, the filters were then counted to determine [^3H]Idazoxan specifically bound. Compounds were screened at 1 μM or lower, using 1% DMSO as vehicle. Compounds of the invention were tested in this biochemical assay and percent inhibition of specific binding was determined. Biochemical assay results are presented as the percent inhibition of specific binding in Table 5.

Setting [4] is: compound at 1 μM, insect Sf9 cells.

T1 sequence (P28223 whole entry): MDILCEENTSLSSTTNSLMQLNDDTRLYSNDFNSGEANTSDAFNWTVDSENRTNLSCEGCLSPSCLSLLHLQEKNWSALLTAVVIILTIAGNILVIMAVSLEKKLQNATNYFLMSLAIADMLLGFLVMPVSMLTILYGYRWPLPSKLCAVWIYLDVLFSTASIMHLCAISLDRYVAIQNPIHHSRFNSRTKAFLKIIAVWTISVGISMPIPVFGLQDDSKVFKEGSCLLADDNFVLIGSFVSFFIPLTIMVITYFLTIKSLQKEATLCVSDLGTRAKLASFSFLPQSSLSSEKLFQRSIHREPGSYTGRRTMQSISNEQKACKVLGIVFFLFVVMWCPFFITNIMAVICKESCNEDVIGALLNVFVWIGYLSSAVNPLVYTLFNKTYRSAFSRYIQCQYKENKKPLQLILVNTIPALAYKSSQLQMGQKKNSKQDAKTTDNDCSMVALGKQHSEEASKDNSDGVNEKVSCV

For `CCOC(=O)Cn1c2c(c3cc(C)ccc31)CN(C)CC2` [CD57, ethyl 2-(1,2,3,4-tetrahydro-2,8-dimethylpyrido[4,3-b]indol-5-yl)acetate], the inhibition (in general, the relative decrease from the control value, in per cent) at 1 µM in assay [1] (compound at 1 μM, CHO-K1 cells) was 92%; in assay [2] (setting [4]), 45%.
For `CN1CCc2c(c3cc(Cl)ccc3n2CCCO)C1` [CD87, 3-(8-chloro-2-methyl-3,4-dihydro-1H-pyrido[4,3-b]indol-5(2H)-yl)propan-1-ol], the inhibition at 1 µM in assay [1] (compound at 1 μM, CHO-K1 cells) was 66%; in assay [2] (setting [4]) it was 79%.
Consider `CN1CCc2c(c3cc(Cl)ccc3n2CCBr)C1` [CD88, 5-(2-bromoethyl)-8-chloro-2-methyl-2,3,4,5-tetrahydro-1H-pyrido[4,3-b]indole], for which the inhibition at 1 µM stood at 98% in assay [1] and 80% in assay [2].
With `CN1CCc2c(c3cc(Cl)ccc3n2CCO)C1` [CD89, 2-(8-chloro-2-methyl-3,4-dihydro-1H-pyrido[4,3-b]indol-5(2H)-yl)ethanol], the inhibition at 1 µM is 70% in assay [1] (compound at 1 μM, CHO-K1 cells) and 70% in assay [2] (setting [4]).
As to `Cc1ccc2c(c1)c1c(n2CCO)CCN(C)C1` [CD90, 2-(2,8-dimethyl-3,4-dihydro-1H-pyrido[4,3-b]indol-5(2H)-yl)ethanol], the inhibition at 1 µM in assay [1] (compound at 1 μM, CHO-K1 cells) came to 58%; in assay [2] (setting [4]), 22%.
For `Cc1ccc2c(c1)c1c(n2CCBr)CCN(C)C1` [CD91, 5-(2-bromoethyl)-2,8-dimethyl-2,3,4,5-tetrahydro-1H-pyrido[4,3-b]indole], the inhibition at 1 µM in assay [1] (compound at 1 μM, CHO-K1 cells) worked out at 96%; in assay [2] (setting [4]) it was 86%.
Take `Cc1ccc2c(c1)c1c(n2CCC#N)CCN(C)C1` [CD92, 3-(2,8-dimethyl-3,4-dihydro-1H-pyrido[4,3-b]indol-5(2H)-yl)propanenitrile]: the inhibition at 1 µM in assay [1] (compound at 1 μM, CHO-K1 cells) worked out at 67%; in assay [2] (setting [4]), 76%.
Consider `CN1CCc2c(c3cc(Cl)ccc3n2CCC#N)C1` [CD94, 3-(8-chloro-2-methyl-3,4-dihydro-1H-pyrido[4,3-b]indol-5(2H)-yl)propanenitrile], for which the inhibition at 1 µM in assay [1] (compound at 1 μM, CHO-K1 cells) was 60%; in assay [2] (setting [4]), 73%.
For the compound `CN1CCc2c(c3cc(Cl)ccc3n2CC(=O)OC(C)(C)C)C1` [Compound 12, tert-butyl 2-(8-chloro-1,2,3,4-tetrahydro-2-methylpyrido[4,3-b]indol-5-yl)acetate], the inhibition at 1 µM in assay [1] (compound at 1 μM, CHO-K1 cells) turned out to be 81%; in assay [2] (setting [4]), 12%.
For `CN1CCc2c(c3cc(Cl)ccc3n2CC(=O)OCC2CCCCC2)C1` [Compound 14, cyclohexylmethyl 2-(8-chloro-1,2,3,4-tetrahydro-2-methylpyrido[4,3-b]indol-5-yl)acetate], in that order: 103% and 79%.
As for `CC(C)OC(=O)CCn1c2c(c3cc(Cl)ccc31)CN(C)CC2` [Compound 17, isopropyl 3-(8-chloro-1,2,3,4-tetrahydro-2-methylpyrido[4,3-b]indol-5-yl)propanoate], the inhibition at 1 µM was determined as 84% in assay [1] (compound at 1 μM, CHO-K1 cells) and 90% in assay [2] (setting [4]).
For `CN1CCc2c(c3cc(Cl)ccc3n2CCC(=O)OCc2ccccc2)C1` [Compound 19, benzyl 3-(8-chloro-1,2,3,4-tetrahydro-2-methylpyrido[4,3-b]indol-5-yl)propanoate], in that order: 95% and 86%.
In the case of `CN1CCc2c(c3cc(Cl)ccc3n2CCC(=O)OCC2CCCCC2)C1` [Compound 20, cyclohexylmethyl 3-(8-chloro-1,2,3,4-tetrahydro-2-methylpyrido[4,3-b]indol-5-yl)propanoate], the inhibition at 1 µM in assay [1] (compound at 1 μM, CHO-K1 cells) amounted to 102%; in assay [2] (setting [4]) it was 95%.
For the compound `CN1CCc2c(c3cc(Cl)ccc3n2CCC(=O)OC2CCCC2)C1` [Compound 21, cyclopentyl 3-(8-chloro-1,2,3,4-tetrahydro-2-methylpyrido[4,3-b]indol-5-yl)propanoate], the inhibition at 1 µM was determined as 98% in assay [1] (compound at 1 μM, CHO-K1 cells) and 95% in assay [2] (setting [4]).
On to `Cc1ccc2c(c1)c1c(n2CC(=O)NC(C)(C)C)CCN(C)C1` [Compound 24, N-tert-butyl-2-(1,2,3,4-tetrahydro-2,8-dimethylpyrido[4,3-b]indol-5-yl)acetamide], for which the inhibition at 1 µM in assay [1] (compound at 1 μM, CHO-K1 cells) worked out at 9%; in assay [2] (setting [4]), 10%.
On to `Cc1ccc2c(c1)c1c(n2CC(=O)NCC2CCCCC2)CCN(C)C1` [Compound 26, N-(cyclohexylmethyl)-2-(1,2,3,4-tetrahydro-2,8-dimethylpyrido[4,3-b]indol-5-yl)acetamide], for which the inhibition at 1 µM in assay [1] (compound at 1 μM, CHO-K1 cells) is 89%; in assay [2] (setting [4]), 22%.
For `Cc1ccc2c(c1)c1c(n2CCC(=O)NC(C)(C)C)CCN(C)C1` [Compound 28], in that order: 17% and 44%.
`Cc1ccc2c(c1)c1c(n2CCC(=O)Nc2ccccc2)CCN(C)C1` [Compound 29]: the inhibition at 1 µM amounted to 96% in assay [1] (compound at 1 μM, CHO-K1 cells) and 78% in assay [2] (setting [4]).
For `Cc1ccc2c(c1)c1c(n2CCC(N)=O)CCN(C)C1` [Compound 46, 3-(1,2,3,4-tetrahydro-2,8-dimethylpyrido[4,3-b]indol-5-yl)propanamide], in that order: 33% and 44%.
Taken in the same sequence, the figures for `Cc1ccc2c(c1)c1c(n2CCC(=O)NC(C)C)CCN(C)C1` [Compound 53] were 39% and 54%.
Take `Cc1ccc2c(c1)c1c(n2CCNC(=O)C2CCCCC2)CCN(C)C1` [Compound 62, N-(2-(1,2,3,4-tetrahydro-2,8-dimethylpyrido[4,3-b]indol-5-yl)ethyl)cyclohexanecarboxamide]: in assay [3], the “Imidazoline I2 Central (1 μM), percent inhibition of specific binding” value came out at 42%. Further, the inhibition at 1 µM in assay [2] (setting [4]) turned out to be 40%.
As for `Cc1ccc2c(c1)c1c(n2CCNC(=O)c2ccc(F)cc2Cl)CCN(C)C1` [Compound 63, 2-chloro-4-fluoro-N-(2-(1,2,3,4-tetrahydro-2,8-dimethylpyrido[4,3-b]indol-5-yl)ethyl)benzamide], the “Imidazoline I2 Central (1 μM), percent inhibition of specific binding” value in assay [3] came to 41%. The inhibition at 1 µM in assay [2] (setting [4]) is 65%.
As to `Cc1ccc2c(c1)c1c(n2CC(N)=O)CCN(C)C1` [Compound 64, 2-(1,2,3,4-tetrahydro-2,8-dimethylpyrido[4,3-b]indol-5-yl)acetamide], the “Imidazoline I2 Central (1 μM), percent inhibition of specific binding” value in assay [3] was 16%. Also, in assay [2] (setting [4]), the inhibition at 1 µM came out at 9%.
For `Cc1ccc2c(c1)c1c(n2CCNC(=O)C2CCNCC2)CCN(C)C1` [Compound 65, N-(2-(1,2,3,4-tetrahydro-2,8-dimethylpyrido[4,3-b]indol-5-yl)ethyl)piperidine-4-carboxamide], in that order: 23% and 17%.
In the case of `Cc1ccc2c(c1)c1c(n2CCNC(=O)c2ccc(F)cc2)CCN(C)C1` [Compound 66, 4-fluoro-N-(2-(1,2,3,4-tetrahydro-2,8-dimethylpyrido[4,3-b]indol-5-yl)ethyl)benzamide], the inhibition at 1 µM in assay [1] (compound at 1 μM, CHO-K1 cells) was determined as 98%; in assay [2] (setting [4]) it was 70%.
For `CN1CCc2c(c3cc(Cl)ccc3n2CCC(N)=O)C1` [Compound 67, 3-(8-chloro-1,2,3,4-tetrahydro-2-methylpyrido[4,3-b]indol-5-yl)propanamide], the inhibition at 1 µM was 55% in assay [1] (compound at 1 μM, CHO-K1 cells) and 79% in assay [2] (setting [4]).
